Results published in patent US12582657B2, “Combination therapy including a KRAS G12C inhibitor and one or more additional pharmaceutically active agents for the treatment of cancers” (Amgen Inc., priority 2018, dated 2026).

Legend:
NCI-H358 tumors = assay: Tumor xenograft efficacy study, single agent and combinations; format: in vivo, mouse; conditions: AMG 510 10 or 30 mg/kg QD oral; carboplatin 50 or 100 mg/kg IP 1x/week
KRAS^G12C = KRAS^G12C (Homo sapiens, UniProt P01116, G12C); assay: Cellular kinetics from time- and concentration-dependence of p-ERK inhibition; format: cell-based; conditions: NCI-H358 cells
Experimental: To provide an alternative estimate of the rate of GTP-hydrolysis by KRAS^G12C, a SHP2 inhibitor was employed to eliminate all upstream signaling to KRAS.
To determine the kinetic values of covalent inhibitor-KRAS^G12C adduct formation in cells, basal ERK1/2 phosphorylation levels were measured following treatment with various inhibitor concentrations at various incubation times exactly as described above, and % activity values were used for the kinetic calculations.

MIA PaCa-2 (pancreas) = assay: In vitro two-way combination matrix, growth inhibition, Loewe synergy score; format: cell-based, human
[1] = system: immune cells in CT-26 KRAS p.G12C tumors; assay: Tumor immunophenotyping by flow cytometry; format: in vivo, mouse; conditions: after 4 days of treatment
[2] = system: ERK1/2 phosphorylation in CT-26 KRAS p.G12C tumors; assay: Tumor pharmacodynamic assay (p-ERK, MSD immunoassay); conditions: MEKi 10 mg/kg single oral dose; 2 hours
KRAS^C118A = target: T1, KRAS^C118A (Homo sapiens, UniProt P01116, C118A); assay: SOS1-catalyzed coupled nucleotide exchange assay (Alpha); format: biochemical; conditions: wildtype at position 12
T1 construct: His-tagged human KRAS^C118A (1-169); made in house; host or cells: Escherichia coli (KRAS, c-RAF); Trichoplusia ni (SOS1)
Experimental: (§1) A cysteine-light mutant construct was used for co-crystallization studies based on the work of Ostrem et al^15.
(§2) The inhibition of the SOS1-catalyzed nucleotide exchange activity of KRAS^G12C/C118A or KRAS^C118A was measured using Alpha (Amplified Luminescent Proximity Homogeneous Assay) technology. […] For all subsequent steps, DTT was added to the reaction buffer at a final concentration of 1 mM. […] Finally, c-RAF RBD (50 nM final), Alpha glutathione donor beads (PerkinElmer; 20 μg/mL final), and AlphaLISA® nickel chelate acceptor beads (PerkinElmer; 20 μg/mL final), all diluted in DTT-reaction buffer, were added. The reaction mixture was incubated at RT for 5 min, and then the plates were read on an EnVision® Multilabel Reader using the AlphaScreen protocol. […] Signal intensity corresponded with the association of c-RAF RBD with GTP-bound KRAS^G12C/C118A or KRAS^C118A and was normalized to DMSO control.

KRAS^G12C/C118A = target: T2, KRAS^G12C/C118A (Homo sapiens, UniProt P01116, C118A/G12C); assay: as above; format: biochemical
T2 construct: Recombinant His-tagged human KRAS^G12C/C118A (1-169); made in house; host or cells: Escherichia coli (KRAS, c-RAF); Trichoplusia ni (SOS1)
Experimental: as §1, §2

T1 sequence (P01116 1-169 isoform P01116-2 C118A): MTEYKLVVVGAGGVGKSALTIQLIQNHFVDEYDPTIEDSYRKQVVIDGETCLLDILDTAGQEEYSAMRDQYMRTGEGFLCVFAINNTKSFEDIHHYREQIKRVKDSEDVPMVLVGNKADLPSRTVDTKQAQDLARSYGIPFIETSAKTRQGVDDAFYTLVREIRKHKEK
T2 sequence (P01116 1-169 isoform P01116-2 G12C/C118A): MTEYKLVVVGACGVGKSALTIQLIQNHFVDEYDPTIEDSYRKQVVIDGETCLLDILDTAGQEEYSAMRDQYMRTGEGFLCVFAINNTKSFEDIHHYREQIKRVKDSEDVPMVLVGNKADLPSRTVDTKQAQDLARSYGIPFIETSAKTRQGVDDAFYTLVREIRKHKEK
Sequence of KRAS^G12C (P01116 1-188 isoform P01116-2 G12C): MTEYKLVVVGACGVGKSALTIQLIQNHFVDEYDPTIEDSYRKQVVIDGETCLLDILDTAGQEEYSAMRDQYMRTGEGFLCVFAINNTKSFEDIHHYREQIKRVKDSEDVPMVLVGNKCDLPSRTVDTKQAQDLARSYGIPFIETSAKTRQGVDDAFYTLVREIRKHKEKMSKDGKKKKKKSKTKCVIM

With `N.N.O=C([O-])C1(C(=O)[O-])CCC1.[Pt+2]` [carboplatin] the “tumor growth, carboplatin combination study” value (NCI-H358 tumors) was “significant tumor growth inhibition”.

With `Cc1nc(N2CCC3(CC2)CO[C@@H](C)[C@H]3N)c(CO)nc1-c1cccc(Cl)c1Cl` [RMC-4550] the “cellular GTP hydrolysis rate from p-ERK inhibition by SHP2 inhibitor” value (KRAS^G12C) was 0.00094 s⁻¹ and the “single agent activity” value (MIA PaCa-2 (pancreas)) was “lack of single agent activity”.

For `C#Cc1cccc(Nc2ncnc3cc(OCCOC)c(OCCOC)cc23)c1` [erlotinib], the “single agent activity” value (MIA PaCa-2 (pancreas)) was “lack of erlotinib activity”.

With `O=C(NOC[C@H](O)CO)c1ccc(F)c(F)c1Nc1ccc(I)cc1F` [MEKi, N-(((2R)-2,3-dihydroxypropyl)oxy)-3,4-difluoro-2-((2-fluoro-4-iodophenyl)amino)benzamide] the “PD-1 expression on CD8+ T cells” value [1] was “moderately increased”, the “T cell infiltration of tumors” value [1] was “did not affect numbers of infiltrating CD8+ T cells” and the “infiltration of macrophages and dendritic cells” value [1] was “not observed”. The “MAPK signaling in tumors” value [2] was “blocked MAPK signaling downstream of RAS”.

In the case of `CCC(=O)N1CCN(c2nc(=O)n(-c3c(C)ccnc3C(C)C)c3nc(-c4c(O)cccc4F)c(F)cc23)[C@@H](C)C1` (atropisomer, axis not shown; (M)) [non-reactive analog of AMG 510, (M)-6-Fluoro-7-(2-fluoro-6-hydroxyphenyl)-1-(4-methyl-2-(2-propanyl)-3-pyridinyl)-4-((2S)-2-methyl-4-propanoyl-1-piperazinyl)pyrido[2,3-d]pyrimidin-2(1H)-one], the “inhibition of KRAS^C118A nucleotide exchange” value (KRAS^C118A) is reported as “minimal activity” and the “inhibition of KRAS^G12C/C118A nucleotide exchange” value (KRAS^G12C/C118A) is reported as “minimal activity”.
